Measured values taken from paper PMC11596557, “Exiguolysin, a Novel Thermolysin (M4) Peptidase from Exiguobacterium oxidotolerans” (Microorganisms, 2024).

Columns and labels:
[1] = biological target: thermolysin-like protease of E. oxidotolerans (exiguolysin) (Exiguobacterium oxidotolerans, UniProt A0A653I866); assay: Inhibitor screening and Ki determination, fluorogenic MMP substrate assay; type: biochemical; conditions: fluorogenic substrate hydrolysis, 37 °C; Morrison equation for tight-binding inhibitors; Km 14.20 µM; read-out: True Ki
thermolysin-like protease of E. oxidotolerans (exiguolysin), sequence (A0A653I866 entry or part of it): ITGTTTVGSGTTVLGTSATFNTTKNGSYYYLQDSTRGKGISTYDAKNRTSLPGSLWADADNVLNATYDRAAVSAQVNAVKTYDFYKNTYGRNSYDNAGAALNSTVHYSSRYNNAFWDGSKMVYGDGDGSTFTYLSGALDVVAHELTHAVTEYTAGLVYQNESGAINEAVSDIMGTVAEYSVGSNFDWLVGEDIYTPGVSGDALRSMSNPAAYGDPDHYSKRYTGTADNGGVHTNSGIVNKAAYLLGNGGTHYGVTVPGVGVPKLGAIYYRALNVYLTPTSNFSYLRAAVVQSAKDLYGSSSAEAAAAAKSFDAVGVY
Protocol: The inhibition of protease activity was screened using a 20 × 20 library of N-alpha dipeptide mercaptoamide inhibitors as previously described by Cathcart et al., and the half-maximal inhibitory constant (Ki) values were determined. In order to determine Michaelis–Menten constant, Km, of the fluorogenic substrate, exiguolysin (previously purified by HIC, final concentration 5 units/well) was added to wells of a 96-well black microtitre plate (Nunc); the volume was adjusted to 75 µL in assay buffer (25 mM Tris, 2.5 mM CaCl2, pH 7.0), and fluorogenic substrate (25 µL) was added at concentrations of 0, 1, 10, 25, 50, 100 and 200 µM. Time-dependent hydrolysis of the fluorogenic substrate was measured (excitation/emission […] nm) every 30 s for 30 min. The Km is determined using the Michealis–Menten equation, by plotting the rate of substrate hydrolysis against substrate concentration.
Initially, each inhibitor was tested at a final concentration of 100 µM in a broad-spectrum screen, employing a standard fluorogenic substrate assay using Mca-Lys-Pro-Leu-Gly-Leu-Dap-(Dnp)-Ala-Arg-NH2. Enzyme reactions were carried out in a 96-well black plate at 37 °C, and fluorescence was monitored as described above.

PAR-1 = biological target: T1, PAR-1 (Homo sapiens, UniProt P25116); assay: Calcium mobilization assay in PC-3 cells (Fluo-4 AM); type: cell-based; conditions: protease pre-incubated with inhibitor, thrombin-induced activation
T1 construct: calcium mobilization in PC-3 cells (expressing PAR1); endogenous in cells; host or cells: PC-3
T1 sequence (P25116 22-425): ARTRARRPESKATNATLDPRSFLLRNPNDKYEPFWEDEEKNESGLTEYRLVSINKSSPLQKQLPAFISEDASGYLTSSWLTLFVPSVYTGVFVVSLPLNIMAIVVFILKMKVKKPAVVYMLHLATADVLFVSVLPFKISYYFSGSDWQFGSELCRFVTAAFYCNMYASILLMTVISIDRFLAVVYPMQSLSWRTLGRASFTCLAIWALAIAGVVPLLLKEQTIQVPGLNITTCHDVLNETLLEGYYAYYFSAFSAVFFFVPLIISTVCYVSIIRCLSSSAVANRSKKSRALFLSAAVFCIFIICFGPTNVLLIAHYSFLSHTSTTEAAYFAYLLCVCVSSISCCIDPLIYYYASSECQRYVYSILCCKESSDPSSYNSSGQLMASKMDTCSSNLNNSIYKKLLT
Protocol: Calcium mobilization in PC-3 and HCT15 cells was assessed using the fluorescent calcium indicator Fluo-4 AM (ThermoFisher, UK). Cells were cultured in RPMI-1640 medium with 10% fetal bovine serum and antibiotics, maintained at 37 °C with 5% CO2. Cells were seeded in 96-well plates and incubated with 5 μM Fluo-4 AM for 30 min at 37 °C. After washing, cells were treated with 5 units/well of thermolysin-like protease or the agonists TFLLRN (PAR-1) and SLIGKV (PAR-2). Intracellular calcium changes were monitored using a BMG Fluostar plate reader (excitation: 494 nm, emission: 516 nm).

[2] = system: E. oxidotolerans peptidase; assay: Fluorogenic substrate hydrolysis progress curves with class-specific inhibitors (purified enzyme); type: biochemical, Exiguobacterium oxidotolerans; conditions: 1,10 phenanthroline 2 mM, PMSF 0.2 mM, E-64 10 μM
Protocol: Peptidase activity was confirmed using the matrix metalloproteinase (MMP) substrate Mca-Lys-Pro-Leu-Gly-Leu-Dap-(Dnp)-Ala-Arg-NH2 (Peptides International). Class-specific inhibitors were used to determine the catalytic mechanism, including E-64 (10 μM) for cysteine proteases, 1,10 phenanthroline (2 mM) for metalloproteases, and PMSF (0.2 mM) for serine proteases. These concentrations were selected based on established guidelines for effective inhibition. Fluorescence was monitored at excitation 330 nm and emission 460 nm over a 45 min period as described previously.
Time-dependent hydrolysis of the fluorogenic substrate Mca-Lys-Pro-Leu-Gly-Leu-Dap-(Dnp)-Ala-Arg-NH2 by exiguolysin was measured in 96-well plates (total volume 100 µL) with fluorescence was measured every 30 s for 45 min using a plate reader (excitation at 330 nm and emission at 460 nm). Progress curves were generated, and kinetic parameters were determined using non-linear regression.

[3] = system: E. oxidotolerans protease; assay: Azocasein hydrolysis with class-specific protease inhibitors (culture supernatant); type: biochemical, Exiguobacterium oxidotolerans; conditions: 1,10-phenanthroline 2 mM, PMSF 0.2 mM, E-64 10 μM; 37 °C, 1 h; crude preparation
Protocol: Peptidase activity was quantified using azocasein hydrolysis. Conditioned media (100 µL) was mixed with 1% (w/v) azocasein in PBS and incubated at […] for 1 h. The reaction was quenched by adding 400 µL of 5% trifluoroacetic acid (TFA), and the mixture was centrifuged at 13,000 rpm for 10 min. Absorbance of the supernatant was measured at 440 nm to determine protease activity. Units of protease activity were calculated as previously described by Loomes et al..
Overnight cultures were centrifuged (4000 rpm, 4 °C, 12 min), and the supernatant was filtered through a 0.45 µm nitrocellulose membrane. Protease activity was evaluated by incubating 100 µL of supernatant with 1% azocasein at 37 °C for 1 h. The reaction was quenched with 400 µL of TFA, and absorbance was measured at 440 nm. Protease mechanistic class was determined by incubating the supernatant with 2 mM 1,10-phenanthroline (metalloprotease inhibitor), 0.2 mM PMSF (serine protease inhibitor), and 10 µM E-64 (cysteine protease inhibitor) prior to azocasein hydrolysis.

[4] = system: E. oxidotolerans peptidase; assay: Casein zymography with and without 1,10-phenanthroline; type: biochemical, Exiguobacterium oxidotolerans; conditions: crude and purified samples; 1,10-phenanthroline in renaturing buffer
Protocol: Casein zymography was used to visualize protease activity in fractions collected from the Akta Prime HIC system. Samples were prepared in Laemmli buffer and run on a Tris-Glycine casein zymogram gel using the XCell SureLock™ Mini-Cell system. Following electrophoresis, gels were sectioned and renatured in Novex zyogram renaturing buffer with and without 1,10 phenanthroline (5 mM) to assess metalloprotease activity. Gels were stained, destained, and analyzed for caseinolytic peptidase activity.

Row | SMILES | Ki [1] | also measured
1 | CCC(C)C(NC(=O)CS)C(=O)NC(C(N)=O)C(C)C (stereo not drawn) [Me-Ile-Val-NH2] | 8.33 µM | 
2 | NCCCCC(NC(=O)C(CC(N)=O)NC(=O)CS)C(N)=O (stereo not drawn) [Me-Asn-Lys-NH2] | 20.9 µM | 
3 | N=C(N)NCCCC(NC(=O)C1CCCN1C(=O)CS)C(N)=O (stereo not drawn) [Me-Pro-Arg-NH2, SH-CH2-CO-Pro-Arg-NH2] | 3.97 µM | Reversal of the protease's PAR-1 disarming effect (PAR-1): reversed
4 | NC(=O)CC(NC(=O)CS)C(=O)NC(Cc1ccc(O)cc1)C(N)=O (stereo not drawn) [Me-Asn-Tyr-NH2] | 5.71 µM | 
5 | CC(C)C(NC(=O)C(NC(=O)CS)C(C)C)C(N)=O (stereo not drawn) [Me-Val-Val-NH2] | 3.21 µM | 
6 | c1cnc2c(c1)ccc1cccnc12 [1,10-phenanthroline] |  | Inhibition of hydrolysis of Mca-Lys-Pro-Leu-Gly-Leu-Dap-(Dnp)-Ala-Arg-NH2 (progress curves) [2]: significantly inhibited; Inhibition of azocasein hydrolysis [3]: significantly reduced protease activity; Inhibition of proteolytically active bands in zymogram [4]: inhibited
7 | O=S(=O)(F)Cc1ccccc1 [PMSF] |  | Inhibition of hydrolysis of Mca-Lys-Pro-Leu-Gly-Leu-Dap-(Dnp)-Ala-Arg-NH2 (progress curves) [2]: minimal effects; Inhibition of azocasein hydrolysis [3]: Slight inhibition
8 | NC(=O)CC(NC(=O)CS)C(=O)NC(Cc1c[nH]c2ccccc12)C(N)=O (stereo not drawn) [Me-Asn-Trp-NH2] | 4.35 µM | 
9 | CC(C)C[C@H](NC(=O)[C@H]1O[C@@H]1C(=O)O)C(=O)NCCCCN=C(N)N [Inhibitor E-64, E-64] |  | Inhibition of hydrolysis of Mca-Lys-Pro-Leu-Gly-Leu-Dap-(Dnp)-Ala-Arg-NH2 (progress curves) [2]: minimal effects; Inhibition of azocasein hydrolysis [3]: partial inhibition
10 | CCC(C)C(NC(=O)C(NC(=O)CS)C(C)CC)C(N)=O (stereo not drawn) [Me-Ile-Ile-NH2] | 11.2 µM | 
11 | CSCCC(NC(=O)CS)C(=O)NC(Cc1ccc(O)cc1)C(N)=O (stereo not drawn) [Me-Met-Tyr-NH2, SH-CH2-CO-Met-Tyr-NH2] | 1.95 µM | 
12 | NC(=O)C(Cc1ccccc1)NC(=O)C(Cc1ccc(O)cc1)NC(=O)CS (stereo not drawn) [Me-Tyr-Phe-NH2] | 5.52 µM | 
